Publication PMC10674894 (Viruses, 2023)

Key:
Vero cells = experiment: Cytotoxicity MTT assay in Vero cells (MNTD, CC50); assay type: cell-based, African green monkey; settings: Table S1; Vero cells
CHIKV DRDE-07 = experiment: In vitro screening against CHIKV (CPE inhibition and MTT cell viability); assay type: cell-based, chikungunya virus; settings: Table S1, CHIKV-infected Vero cells; for % Cell viability: 72 hpi, MTT assay; for CPE: arbitrary score of cytopathic effect at >48 hpi

CC(=O)Cc1noc(-c2ccccn2)n1 [DCR84, 1-[5-(pyridin-2-yl)-1,2,4-oxadiazol-3-yl]propan-2-one] was tested, and the MNTD (Vero cells) was 125 µM, the “% Cell viability” value (CHIKV DRDE-07) was 2.86% and the CPE (CHIKV DRDE-07) was “++++ (>60% (++++))”.
CC(=O)Cc1noc(-c2ccc(Br)cc2)n1 [DCR85, 1-[5-(4-bromophenyl)-1,2,4-oxadiazol-3-yl]propan-2-one] was tested, and the MNTD (Vero cells) was 222.34 µM, the “% Cell viability” value (CHIKV DRDE-07) was 10.38% and the CPE (CHIKV DRDE-07) was “++++ (>60% (++++))”.
In the case of C#CCOC(=O)C1=C(C)NC(=O)NC1c1ccc(OC)cc1 (stereo not drawn) [DCR86, prop-2-yn-1-yl 4-(4-methoxyphenyl)-6-methyl-2-oxo-1,2,3,4-tetrahydropyrimidine-5-carboxylate], the MNTD (Vero cells) is reported as 208.12 µM, the “% Cell viability” value (CHIKV DRDE-07) is reported as 10.59% and the CPE (CHIKV DRDE-07) is reported as “++++ (>60% (++++))”.
C#CCOC(=O)C1=C(C)NC(=O)NC1c1ccc(CC)cc1 (stereo not drawn) [DCR87, prop-2-yn-1-yl 4-(4-ethylphenyl)-6-methyl-2-oxo-1,2,3,4-tetrahydropyrimidine-5-carboxylate] was tested, and the MNTD (Vero cells) was 104.58 µM, the “% Cell viability” value (CHIKV DRDE-07) was 11.61% and the CPE (CHIKV DRDE-07) was “++++ (>60% (++++))”.
For C#CCOC(=O)C1=C(C)NC(=O)NC1c1ccc(Cl)cc1 (stereo not drawn) [DCR88, prop-2-yn-1-yl 4-(4-chlorophenyl)-6-methyl-2-oxo-1,2,3,4-tetrahydropyrimidine-5-carboxylate], the MNTD (Vero cells) was 205.1 µM, the “% Cell viability” value (CHIKV DRDE-07) was 11.05% and the CPE (CHIKV DRDE-07) was “++++ (>60% (++++))”.
In the case of C#CCOC(=O)C1=C(C)NC(=O)NC1c1cccc(Cl)c1 (stereo not drawn) [DCR89, prop-2-yn-1-yl 4-(3-chlorophenyl)-6-methyl-2-oxo-1,2,3,4-tetrahydropyrimidine-5-carboxylate], the MNTD (Vero cells) is reported as 205.1 µM, the “% Cell viability” value (CHIKV DRDE-07) is reported as 10.94% and the CPE (CHIKV DRDE-07) is reported as “++++ (>60% (++++))”.
C#CCOC(=O)C1=C(C)NC(=O)NC1c1ccc(F)cc1 (stereo not drawn) [DCR90, prop-2-yn-1-yl 4-(4-fluorophenyl)-6-methyl-2-oxo-1,2,3,4-tetrahydropyrimidine-5-carboxylate] was tested, and the MNTD (Vero cells) was 433.62 µM, the “% Cell viability” value (CHIKV DRDE-07) was 12.59% and the CPE (CHIKV DRDE-07) was “++++ (>60% (++++))”.
With C#CCOC(=O)C1=C(C)NC(=O)NC1c1ccc(C(F)(F)F)cc1 (stereo not drawn) [DCR91, prop-2-yn-1-yl 6-methyl-2-oxo-4-[4-(trifluoromethyl)phenyl]-1,2,3,4-tetrahydropyrimidine-5-carboxylate] the MNTD (Vero cells) was 369.52 µM, the “% Cell viability” value (CHIKV DRDE-07) was 13.12% and the CPE (CHIKV DRDE-07) was “++++ (>60% (++++))”.
In the case of C#CCOC(=O)C1=C(C)NC(=O)NC1c1ccccc1 (stereo not drawn) [DCR92, prop-2-yn-1-yl 6-methyl-2-oxo-4-phenyl-1,2,3,4-tetrahydropyrimidine-5-carboxylate], the MNTD (Vero cells) is reported as 462.48 µM, the “% Cell viability” value (CHIKV DRDE-07) is reported as 12.8% and the CPE (CHIKV DRDE-07) is reported as “++++ (>60% (++++))”.
With C#CCOC(=O)C1=C(C)NC(=O)NC1c1ccc(OCC)cc1 (stereo not drawn) [DCR94, prop-2-yn-1-yl 4-(4-ethoxyphenyl)-6-methyl-2-oxo-1,2,3,4-tetrahydropyrimidine-5-carboxylate] the MNTD (Vero cells) was 198.83 µM, the “% Cell viability” value (CHIKV DRDE-07) was 19.5% and the CPE (CHIKV DRDE-07) was “++++ (>60% (++++))”.
For C#CCOC(=O)C1=C(C)NC(=O)NC1c1cccc(F)c1 (stereo not drawn) [DCR95, prop-2-yn-1-yl 4-(3-fluorophenyl)-6-methyl-2-oxo-1,2,3,4-tetrahydropyrimidine-5-carboxylate], the MNTD (Vero cells) was 433.62 µM, the “% Cell viability” value (CHIKV DRDE-07) was 11.54% and the CPE (CHIKV DRDE-07) was “++++ (>60% (++++))”.
COc1ccc(C2NC(=O)NC(C)=C2C(=O)OCCC(C)C)cc1 (stereo not drawn) [DCR96, 3-methylbutyl 4-(4-methoxyphenyl)-6-methyl-2-oxo-1,2,3,4-tetrahydropyrimidine-5-carboxylate] was tested, and the MNTD (Vero cells) was 376.06 µM, the “% Cell viability” value (CHIKV DRDE-07) was 11.71% and the CPE (CHIKV DRDE-07) was “++++ (>60% (++++))”.
In the case of COc1ccc(C2NC(=O)NC(C)=C2C(=O)OCCc2ccccc2)cc1 (stereo not drawn) [DCR97, 2-phenylethyl 4-(4-methoxyphenyl)-6-methyl-2-oxo-1,2,3,4-tetrahydropyrimidine-5-carboxylate], the MNTD (Vero cells) is reported as 170.57 µM, the “% Cell viability” value (CHIKV DRDE-07) is reported as 11.19% and the CPE (CHIKV DRDE-07) is reported as “++++ (>60% (++++))”.
In the case of C=CCOC(=O)C1=C(C)NC(=O)NC1c1ccc(OC)cc1 (stereo not drawn) [DCR98, prop-2-en-1-yl 4-(4-methoxyphenyl)-6-methyl-2-oxo-1,2,3,4-tetrahydropyrimidine-5-carboxylate], the MNTD (Vero cells) is reported as 413.46 µM, the “% Cell viability” value (CHIKV DRDE-07) is reported as 12.66% and the CPE (CHIKV DRDE-07) is reported as “++++ (>60% (++++))”.
COc1ccc(C2NC(=O)NC(C)=C2C(=O)OCC(C)C)cc1 (stereo not drawn) [DCR99, 2-methylpropyl 4-(4-methoxyphenyl)-6-methyl-2-oxo-1,2,3,4-tetrahydropyrimidine-5-carboxylate] was tested, and the MNTD (Vero cells) was 392.64 µM, the “% Cell viability” value (CHIKV DRDE-07) was 11.29% and the CPE (CHIKV DRDE-07) was “++++ (>60% (++++))”.
With COc1ccc(C2NC(=O)NC(C)=C2C(=O)OCc2ccc(Cl)cc2)cc1 (stereo not drawn) [DCR100, (4-chlorophenyl)methyl 4-(4-methoxyphenyl)-6-methyl-2-oxo-1,2,3,4-tetrahydropyrimidine-5-carboxylate] the MNTD (Vero cells) was 323.15 µM, the “% Cell viability” value (CHIKV DRDE-07) was 12.84% and the CPE (CHIKV DRDE-07) was “++++ (>60% (++++))”.
COc1ccc(COC(=O)C2=C(C)NC(=O)NC2c2ccc(OC)cc2)cc1 (stereo not drawn) [DCR101, 4-methoxybenzyl 4-(4-methoxyphenyl)-6-methyl-2-oxo-1,2,3,4-tetrahydropyrimidine-5-carboxylate] was tested, and the MNTD (Vero cells) was 250 µM, the “% Cell viability” value (CHIKV DRDE-07) was 7.02% and the CPE (CHIKV DRDE-07) was “++++ (>60% (++++))”.
COc1ccc(C2NC(=O)NC(C)=C2C(=O)OCc2ccccc2)cc1 (stereo not drawn) [DCR102, benzyl 4-(4-methoxyphenyl)-6-methyl-2-oxo-1,2,3,4-tetrahydropyrimidine-5-carboxylate] was tested, and the MNTD (Vero cells) was 250 µM, the “% Cell viability” value (CHIKV DRDE-07) was 8.11% and the CPE (CHIKV DRDE-07) was “++++ (>60% (++++))”.
With C=C(C)CCOC(=O)C1=C(C)NC(=O)NC1c1ccc(OC)cc1 (stereo not drawn) [DCR103, 3-methylbut-3-en-1-yl 4-(4-methoxyphenyl)-6-methyl-2-oxo-1,2,3,4-tetrahydropyrimidine-5-carboxylate] the MNTD (Vero cells) was 250 µM, the “% Cell viability” value (CHIKV DRDE-07) was 21.11% and the CPE (CHIKV DRDE-07) was “++++ (>60% (++++))”.
With CC1=C(C(=O)OCC[N+](C)(C)C)C(c2ccc([N+](=O)[O-])cc2)NC(=O)N1 (stereo not drawn) [DCR104, N,N,N-trimethyl-2-({[6-methyl-4-(4-nitrophenyl)-2-oxo-1,2,3,4-tetrahydropyrimidin-5-yl]carbonyl}oxy)ethanaminium] the MNTD (Vero cells) was 125 µM, the “% Cell viability” value (CHIKV DRDE-07) was 9.09% and the CPE (CHIKV DRDE-07) was “++++ (>60% (++++))”.
In the case of CC1=C(C(=O)OCC[N+](C)(C)C)C(c2ccc(C)cc2)NC(=O)N1 (stereo not drawn) [DCR105, N,N,N-trimethyl-2-({[6-methyl-4-(4-methylphenyl)-2-oxo-1,2,3,4-tetrahydropyrimidin-5-yl]carbonyl}oxy)ethanaminium], the MNTD (Vero cells) is reported as 125 µM, the “% Cell viability” value (CHIKV DRDE-07) is reported as 2.45% and the CPE (CHIKV DRDE-07) is reported as “++++ (>60% (++++))”.
CC1=C(C(=O)OCC[N+](C)(C)C)C(c2ccc(Cl)cc2)NC(=O)N1 (stereo not drawn) [DCR106, 2-({[4-(4-chlorophenyl)-6-methyl-2-oxo-1,2,3,4-tetrahydropyrimidin-5-yl]carbonyl}oxy)-N,N,N-trimethylethanaminium] was tested, and the MNTD (Vero cells) was 62.5 µM, the “% Cell viability” value (CHIKV DRDE-07) was 3.33% and the CPE (CHIKV DRDE-07) was “++++ (>60% (++++))”.
For COc1ccc(C2NC(=O)NC(C)=C2C(=O)OCC[N+](C)(C)C)cc1 (stereo not drawn) [DCR107, {2‐[4‐(4‐methoxyphenyl)‐6‐methyl‐2‐oxo‐1,2,3,4‐tetrahydropyrimidine‐5‐carbonyloxy]ethyl}trimethylazanium], the MNTD (Vero cells) was 62.5 µM, the “% Cell viability” value (CHIKV DRDE-07) was 13.22% and the CPE (CHIKV DRDE-07) was “++++ (>60% (++++))”.
In the case of CC1=C(C(=O)OCCN(C)C)C(c2ccc(Cl)cc2)NC(=O)N1 (stereo not drawn) [DCR108, 2-(dimethylamino)ethyl 4-(4-chlorophenyl)-6-methyl-2-oxo-1,2,3,4-tetrahydropyrimidine-5-carboxylate], the MNTD (Vero cells) is reported as 62.5 µM, the “% Cell viability” value (CHIKV DRDE-07) is reported as 13.99% and the CPE (CHIKV DRDE-07) is reported as “++++ (>60% (++++))”.
With CC1=C(C(=O)OCCN(C)C)C(c2ccc(N(C)C)cc2)NC(=O)N1 (stereo not drawn) [DCR109, 2‐(dimethylamino)ethyl 4‐[4‐(dimethylamino)phenyl]‐6‐methyl‐2‐oxo‐1,2,3,4‐tetrahydropyrimidine‐5‐carboxylate] the MNTD (Vero cells) was 62.5 µM, the “% Cell viability” value (CHIKV DRDE-07) was 15.11% and the CPE (CHIKV DRDE-07) was “++++ (>60% (++++))”.
For CC1=C(C(=O)OCCN(C)C)C(c2ccc(O)cc2)NC(=O)N1 (stereo not drawn) [DCR110, 2-(dimethylamino)ethyl 4-(4-hydroxyphenyl)-6-methyl-2-oxo-1,2,3,4-tetrahydropyrimidine-5-carboxylate], the MNTD (Vero cells) was 62.5 µM, the “% Cell viability” value (CHIKV DRDE-07) was 12.01% and the CPE (CHIKV DRDE-07) was “++++ (>60% (++++))”.
In the case of CC1=C(C(=O)OCCN(C)C)C(c2ccc(N(C)C)cc2)NC(=S)N1 (stereo not drawn) [DCR111, 2‐(dimethylamino)ethyl 4‐[4‐(dimethylamino)phenyl]‐6‐methyl‐2‐sulfanylidene‐1,2,3,4‐tetrahydropyrimidine‐5‐carboxylate], the MNTD (Vero cells) is reported as 62.5 µM, the “% Cell viability” value (CHIKV DRDE-07) is reported as 10.08% and the CPE (CHIKV DRDE-07) is reported as “++++ (>60% (++++))”.
In the case of COc1ccc(C2NC(=O)NC(C)=C2C(=O)OCCN(C)C)cc1 (stereo not drawn) [DCR112, 2-(dimethylamino)ethyl 4-(4-methoxyphenyl)-6-methyl-2-oxo-1,2,3,4-tetrahydropyrimidine-5-carboxylate], the MNTD (Vero cells) is reported as 62.5 µM, the “% Cell viability” value (CHIKV DRDE-07) is reported as 2.09% and the CPE (CHIKV DRDE-07) is reported as “++++ (>60% (++++))”.
With COc1ccc(C2c3c(ccc4ccccc34)Oc3ccc4ccccc4c32)cc1 [DCR113, 2‐(4‐methoxyphenyl)‐13‐oxapentacyclo[12.8.0.0³,¹².0⁴,⁹.0¹⁷,²²]docosa‐1(14),3,5,7,9,11,15,17(22),18,20‐decaene] the MNTD (Vero cells) was 31.25 µM, the “% Cell viability” value (CHIKV DRDE-07) was 5.04% and the CPE (CHIKV DRDE-07) was “++++ (>60% (++++))”.
In the case of CCOc1ccc(C2c3c(ccc4ccccc34)Oc3ccc4ccccc4c32)cc1 [DCR114, 2‐(4‐ethoxyphenyl)‐13‐oxapentacyclo[12.8.0.0³,¹².0⁴,⁹.0¹⁷,²²]docosa‐1(14),3,5,7,9,11,15,17(22),18,20‐decaene], the MNTD (Vero cells) is reported as 31.25 µM, the “% Cell viability” value (CHIKV DRDE-07) is reported as 4.05% and the CPE (CHIKV DRDE-07) is reported as “++++ (>60% (++++))”.
With Clc1ccc(C2c3c(ccc4ccccc34)Oc3ccc4ccccc4c32)cc1 [DCR115, 2‐(4‐chlorophenyl)‐13‐oxapentacyclo[12.8.0.0³,¹².0⁴,⁹.0¹⁷,²²]docosa‐1(14),3,5,7,9,11,15,17(22),18,20‐decaene] the MNTD (Vero cells) was 125 µM, the “% Cell viability” value (CHIKV DRDE-07) was 17.1% and the CPE (CHIKV DRDE-07) was “++++ (>60% (++++))”.
